The target of experiment [1] is T1, hMcm10-ID (Homo sapiens, UniProt Q7L590).
T1 construct: hMcm10-ID (residues 237 to 436) were expressed in E. coli strain BL21(DE3); 6xHis (HRV 3C site) (N, cleaved yes); made in house; host or cells: E. coli BL21(DE3)
T1 sequence (Q7L590 237-436): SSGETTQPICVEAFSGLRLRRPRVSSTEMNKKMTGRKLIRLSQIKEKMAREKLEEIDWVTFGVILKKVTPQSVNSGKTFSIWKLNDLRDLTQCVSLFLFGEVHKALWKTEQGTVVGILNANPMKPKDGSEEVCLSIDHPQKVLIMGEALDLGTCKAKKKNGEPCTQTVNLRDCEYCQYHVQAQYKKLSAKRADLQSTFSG
The experiment can be described thus: ABA injection SPR competition experiment with NF023 on hMcm10-ID. It counts as binding. The conditions noted are these: competitor at 1× KD with NF023 at 10× KD (50 μM). How it is done:
To explore this possibility, competition-based SPR experiments were conducted using the ABA injection method to determine if the slow binder iso-PPADS competes with the fast kinetic compound NF023 (figure 4). ABA injection allows solution A (NF023 at 10× its KD) to be injected over the surface with solution B (NF023 + competitor at 1× KD) in the same cycle. Competitive binding should result in little or no change in binding response between the A and B injections, whereas non-competitive binders are expected to produce an additive binding response.
For ABA competition SPR experiments, the CM5 chip surface was prepared as described in Materials and Methods. Solution A was prepared with 50 μM NF023 in running buffer while solution B was prepared with the competitor near its KD value (NF023 = 5 μM, suramin = 0.5 μM, and iso-PPADS = 30 μM) ± 50 μM NF023 in running buffer. Data were collected at a rate of 40 Hz and analyzed with the Biacore S200 Evaluation Software. For these experiments, hMcm10-ID was immobilized to the chip surface and NF023 at a concentration 10-fold higher than its KD. A running buffer control was performed to establish the baseline of the experiment. When buffer and NF023 were injected as solution B, there was a small decrease in RU due to slight buffer mismatch effects (Figure 5a). […] NF023, suramin, and iso-PPADS were chosen as competitors to be tested at concentrations equal to their respective KD values as determined by SPR.

The target of experiment [2] is T2, human Mcm10 internal domain (hMcm10-ID) (Homo sapiens, UniProt Q7L590).
T2 construct: hMcm10-ID (residues 237 to 436) were expressed in E. coli strain BL21(DE3); 6xHis (HRV 3C site) (N, cleaved yes); made in house; host or cells: E. coli BL21(DE3)
T2 sequence (Q7L590 237-436): T1 sequence (Q7L590 237-436)
In words: Fluorescence polarization competition assay, displacement of 5′-6FAM 10-mer ssDNA probe from hMcm10-ID. It counts as binding. The conditions noted are these: mean ± s.e.m., n ≥ 3; hMcm10-ID 1 μM, probe 12.5 nM. How it is done:
A fluorescence polarization (FP) HTS assay was established to detect inhibitors of the binding of the 5′-6FAM 10-mer oligo probe to Mcm10. Test compounds dissolved in DMSO were added to 384-well plates (Corning 4514) using an Echo 550 acoustic dispenser (final DMSO 0.1%) to achieve a final single point screening concentration of 10 µM. Then 10 µl of 2× Xenopus internal domain Mcm10 (xMcm10-ID, final concentration 2 µM) in binding buffer (20 mM Tris HCl, 100 mM NaCl, 5% glycerol, and 0.01% triton, pH 7.5) was added using the Combi nL Multidrop dispenser. Finally, 10 µl of 2× 5′-6FAM DNA (final 12.5 nM) in binding buffer was added using the Multidrop. DMSO (0.1%, high signal) and probe only (low signal) controls were included on every plate. Plates were mixed for 2 min, incubated for 60 min at RT in the dark, and read on a CLARIOstar multimode plate reader (excitation: 482-16, emission: 530-40, dichroic filter: LP504).
The LOPAC pilot screen identified the sulfhydryl reagent 4-chloromercuribenzoic acid as an inhibitor in the fluorescence polarization (FP) assay. As there was no known Mcm10 inhibitor, 4-chloromercuribenzoic acid (30 μM) was used as a positive control on initial screening plates. Following the discovery of suramin as a Mcm10 inhibitor, suramin (7 μM) was used as a positive control on subsequent screening plates. To confirm activity, screening hits were tested in dose response experiments (8 concentrations in duplicate) using xMcm10-ID. Similar dose response experiments were conducted with suramin and its analogs to confirm activity for hMcm10-ID (1 μM) and xMcm10-FL (2 μM) and to determine selectivity relative to RPA70AB (0.4 μM). Saturation experiments for each protein were conducted using increasing concentrations of protein with a fixed probe concentration (12.5 nM). FP was measured in mP units, and ∆mP values for each well were calculated as the difference between the measured mP and the average of the “probe only” controls. […] The parallel and perpendicular mP values were also used to calculate total fluorescence intensity (TFI) determined by the sum of parallel mP + (2 x perpendicular mP). TFI was used to detect fluorescence interference by compounds [1]. […] IC50 values were calculated using the four parameter logistic equation in Prism 6.0 (GraphPad). Ki values were obtained using an online Ki calculator according to the equations of Nikolovska-Coleska (http://sw16.im.med.umich.edu/soft-ware/calc_ki/). KD values were calculated using the one site or two site binding equations in Prism 6.0 (GraphPad).
For orientation: In fluorescence polarisation assays a small probe gives low polarisation when free and higher when bound to something large.

Experiment [3] concerns the target T1, hMcm10-ID. In words: Surface plasmon resonance binding kinetics on immobilized hMcm10-ID (Biacore S200). The settings on record: for surface plasmon resonance hMcm10-ID kd / kon: 25°C; for kon: read-out: surface plasmon resonance hMcm10-ID ka; for SPR binding kinetics (description of sensorgrams): immobilized hMcm10-ID. How it is done: SPR experiments were performed using a Biacore S200 (GE Healthcare) equipped with a research-grade CM5 sensor chip. hMcm10-ID, at a concentration of 15 µg ml^−1 in 10 mM sodium acetate, pH 4.5, […], using an amine coupling kit (GE Healthcare) to either flow cell 2 or 4 following manufacturer directions. The reference flow cell (either flow cell 1 or 3) was left untreated. All compounds were dissolved in running buffer (10 mM PBS, 150 mM NaCl, 0.005% P20, pH 7.4) prior to injection over the chip surface at a flow rate of 30 µl min^−1 and at a temperature of 25°C. Zero concentration samples were injected for double referencing. Data were collected at a rate of 40 Hz and were fitted to a simple 1 : 1 interaction model (unless otherwise noted) using the global data analysis within the Biacore S200 evaluation software.
Background: In SPR one partner is held on a chip, and binding of the other changes the refractive index at the surface.

Setting [4] is: calculated from association and dissociation rate constants, 1:1 model, 6000–8000 RU, read-out: surface plasmon resonance hMcm10-ID kinetic KD.

Each structure is given as a SMILES string. Entries after “also recorded” stand apart in the source; their conditions may differ. Structures can show the parent of a compound that is named as a salt. Where two headings read alike, the source gives them in different places.

As for `O=C(Nc1cccc(C(=O)Nc2ccc(S(=O)(=O)O)c3cc(S(=O)(=O)O)cc(S(=O)(=O)O)c23)c1)Nc1cccc(C(=O)Nc2ccc(S(=O)(=O)O)c3cc(S(=O)(=O)O)cc(S(=O)(=O)O)c23)c1` [NF023], the “competition with NF023 for binding to hMcm10-ID (ABA SPR)” value (“competition with NF023 for binding” below) on hMcm10-ID [1] is recorded as “consistent with a competitive interaction”. For the same compound, the Ki (usually a dissociation constant, usually derived from enzyme kinetics or from competition with a known ligand) in experiment [2] came to 1800 ± 200 nM. Also, at hMcm10-ID [3] (1:1 model, 6000–8000 RU), the “surface plasmon resonance hMcm10-ID kd” value stood at 1.6 ± 0.2 s^−1 and the kon is 360000 ± 2e+09 M⁻¹ s⁻¹. Besides, at hMcm10-ID [3] (setting [4]), the Kd (in general, a measure of binding affinity in units of concentration) is 4700 ± 800 nM. Further, the “SPR binding kinetics (description of sensorgrams)” value (“SPR binding kinetics” below) at hMcm10-ID [3] is “rapid association and dissociation”.

Turning to `Cc1ccc(C(=O)Nc2ccc(S(=O)(=O)O)c3cc(S(=O)(=O)O)cc(S(=O)(=O)O)c23)cc1NC(=O)c1cccc(NC(=O)Nc2cccc(C(=O)Nc3cc(C(=O)Nc4ccc(S(=O)(=O)O)c5cc(S(=O)(=O)O)cc(S(=O)(=O)O)c45)ccc3C)c2)c1` [suramin, suramin sodium salt], on hMcm10-ID [1], the “competition with NF023 for binding” value is given as “neither compound showed additive binding”. Further, the affinity in experiment [2] corresponds to a Ki of 830 ± 70 nM. Also, the “surface plasmon resonance hMcm10-ID kd” value on hMcm10-ID [3] (1:1 model, 6000–8000 RU) was determined as 0.16 ± 0.03 s^−1. Besides, the kon at hMcm10-ID [3] (1:1 model, 6000–8000 RU) worked out at 290000 ± 7e+09 M⁻¹ s⁻¹. The Kd is 650 nM at hMcm10-ID [3] (3000 RU of hMcm10-ID immobilized, read-out: SPR kinetic KD at lower surface density) and 570 ± 60 nM on hMcm10-ID [3] (setting [4]). In addition, the “SPR binding kinetics” value on hMcm10-ID [3] is “predominantly rapid kinetics”.

Regarding `Cc1nc(/N=N/c2cc(S(=O)(=O)O)ccc2S(=O)(=O)O)c(COP(=O)(O)O)c(C=O)c1O` [iso-PPADS, pyridoxalphosphate-6-azophenyl-2’, 5’-disulfonic acid tetrasodium salt], the “competition with NF023 for binding” value on hMcm10-ID [1] is given as “neither compound showed additive binding”. The compound also returned a Ki in experiment [2] of 18000 ± 2000 nM. Besides, at hMcm10-ID [3] (1:1 model, 6000–8000 RU), the “surface plasmon resonance hMcm10-ID kd” value is 0.0015 ± 0.0001 s^−1 and the kon is 47 ± 8 M⁻¹ s⁻¹. Further, the Kd at hMcm10-ID [3] (setting [4]) was 40000 ± 9000 nM. The “SPR binding kinetics” value on hMcm10-ID [3] was “slow on- and off-rates”.

Take `O=C(Nc1cccc(C(=O)Nc2cc(C(=O)Nc3ccc(S(=O)(=O)O)c4cc(S(=O)(=O)O)cc(S(=O)(=O)O)c34)ccc2F)c1)Nc1cccc(C(=O)Nc2cc(C(=O)Nc3ccc(S(=O)(=O)O)c4cc(S(=O)(=O)O)cc(S(=O)(=O)O)c34)ccc2F)c1` [NF157]: in experiment [2], the Ki is 170 ± 20 nM. Besides, at hMcm10-ID [3] (1:1 model, 6000–8000 RU), the “surface plasmon resonance hMcm10-ID kd” value was 0.0032 ± 0.0001 s^−1 and the kon stood at 7400 ± 600000 M⁻¹ s⁻¹. On hMcm10-ID [3] (setting [4]), the Kd was 460 ± 50 nM. In addition, the “SPR binding kinetics” value at hMcm10-ID [3] is recorded as “predominantly rapid kinetics”.

With `Cc1nc(/N=N/c2ccc(S(=O)(=O)O)cc2S(=O)(=O)O)c(COP(=O)(O)O)c(C=O)c1O` [PPADS, pyridoxalphosphate-6-azophenyl-2’, 4’-disulfonic acid tetrasodium salt], in experiment [2], the Ki stood at 17000 ± 1000 nM. At hMcm10-ID [3] (1:1 model, 6000–8000 RU), the “surface plasmon resonance hMcm10-ID kd” value turned out to be 0.0013 ± 0.0001 s^−1 and the kon turned out to be 29 ± 8 M⁻¹ s⁻¹. The Kd on hMcm10-ID [3] (setting [4]) is 57000 ± 9000 nM. For the same compound, the “SPR binding kinetics” value on hMcm10-ID [3] was “slow association and dissociation kinetics; also recorded: slow on and off rates”.

(Values after paper PMC6731595, “The anti-parasitic agent suramin and several of its analogues are inhibitors of the DNA binding protein Mcm10” (Open Biology, 2019).)
